Data taken from patent US20130035326A1 (AMBIT BIOSCIENCES CORPORATION, priority 2009, published 2013).

Experiments:
FLT3 kinase = molecular target: T1, FLT3 kinase (Homo sapiens, UniProt P36888); experiment: Competition binding assay, FLT3 Kd
T1 construct: made in house; host or cells: T7 phage display or HEK-293 cells
T1 sequence (P36888 27-993): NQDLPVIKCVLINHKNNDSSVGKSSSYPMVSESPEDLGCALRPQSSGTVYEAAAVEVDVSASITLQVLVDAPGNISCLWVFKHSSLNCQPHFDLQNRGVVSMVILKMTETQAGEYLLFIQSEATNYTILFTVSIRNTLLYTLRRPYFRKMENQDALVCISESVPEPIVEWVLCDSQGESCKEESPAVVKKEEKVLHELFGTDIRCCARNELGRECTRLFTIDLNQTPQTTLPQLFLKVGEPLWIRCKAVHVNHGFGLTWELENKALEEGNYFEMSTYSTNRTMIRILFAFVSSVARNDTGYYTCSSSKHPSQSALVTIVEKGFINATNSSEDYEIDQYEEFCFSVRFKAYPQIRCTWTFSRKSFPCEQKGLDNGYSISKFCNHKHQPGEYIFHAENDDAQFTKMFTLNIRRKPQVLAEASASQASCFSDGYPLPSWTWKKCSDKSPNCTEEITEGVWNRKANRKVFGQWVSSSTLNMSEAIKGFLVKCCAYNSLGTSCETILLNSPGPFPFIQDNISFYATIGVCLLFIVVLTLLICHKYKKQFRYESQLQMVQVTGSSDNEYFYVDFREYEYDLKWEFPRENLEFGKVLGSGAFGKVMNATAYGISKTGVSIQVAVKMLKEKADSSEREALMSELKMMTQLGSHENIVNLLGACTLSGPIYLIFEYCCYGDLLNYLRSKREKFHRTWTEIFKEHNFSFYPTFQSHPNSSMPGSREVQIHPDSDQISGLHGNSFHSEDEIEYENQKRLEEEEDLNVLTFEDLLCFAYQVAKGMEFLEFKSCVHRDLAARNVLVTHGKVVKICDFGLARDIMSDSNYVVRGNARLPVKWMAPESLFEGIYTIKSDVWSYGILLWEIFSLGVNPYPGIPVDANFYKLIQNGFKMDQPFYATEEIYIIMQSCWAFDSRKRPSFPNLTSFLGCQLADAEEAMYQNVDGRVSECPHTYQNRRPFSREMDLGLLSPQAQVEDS
Summary of the method: (§1)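 Steps: biotinylated ligand loaded on streptavidin magnetic beads 30 min; beads blocked with biotin; kinase, beads and compound combined 1 hour at room temperature; beads washed, eluted 30 min with 0.5 μM free ligand; eluted kinase measured by quantitative PCR. Kd derived from eleven-point threefold dilutions.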

CSF-1R kinase = molecular target: T2, CSF-1R kinase (Homo sapiens, UniProt P07333); experiment: Competition binding assay, CSF-1R Kd
T2 construct: made in house; host or cells: T7 phage display or HEK-293 cells
T2 sequence (P07333 20-972): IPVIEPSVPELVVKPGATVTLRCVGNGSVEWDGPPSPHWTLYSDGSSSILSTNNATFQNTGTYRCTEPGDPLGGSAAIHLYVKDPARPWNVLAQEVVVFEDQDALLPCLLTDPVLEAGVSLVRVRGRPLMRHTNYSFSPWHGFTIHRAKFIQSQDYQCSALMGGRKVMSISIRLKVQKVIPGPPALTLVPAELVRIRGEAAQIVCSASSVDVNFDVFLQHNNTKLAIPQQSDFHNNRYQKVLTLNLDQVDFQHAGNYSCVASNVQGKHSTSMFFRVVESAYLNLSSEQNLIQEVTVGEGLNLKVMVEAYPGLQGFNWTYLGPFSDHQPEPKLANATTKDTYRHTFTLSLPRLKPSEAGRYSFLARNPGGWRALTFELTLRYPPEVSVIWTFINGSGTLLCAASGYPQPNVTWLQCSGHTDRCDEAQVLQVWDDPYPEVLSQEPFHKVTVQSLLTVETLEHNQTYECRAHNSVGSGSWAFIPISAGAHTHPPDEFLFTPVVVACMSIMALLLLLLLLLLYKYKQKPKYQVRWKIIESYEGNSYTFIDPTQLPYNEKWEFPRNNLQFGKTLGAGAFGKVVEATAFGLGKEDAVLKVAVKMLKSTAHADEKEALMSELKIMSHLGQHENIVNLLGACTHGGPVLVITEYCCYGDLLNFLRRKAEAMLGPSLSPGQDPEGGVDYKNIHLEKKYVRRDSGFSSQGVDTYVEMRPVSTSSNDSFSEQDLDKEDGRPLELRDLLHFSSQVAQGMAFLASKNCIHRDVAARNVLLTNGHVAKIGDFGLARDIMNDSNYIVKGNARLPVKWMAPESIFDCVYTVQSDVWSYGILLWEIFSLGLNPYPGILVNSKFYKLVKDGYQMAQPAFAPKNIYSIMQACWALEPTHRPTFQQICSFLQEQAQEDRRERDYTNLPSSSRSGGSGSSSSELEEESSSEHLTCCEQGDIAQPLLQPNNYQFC
Summary of the method: as §1

KIT kinase = molecular target: T3, KIT kinase (Homo sapiens, UniProt P10721); experiment: Competition binding assay, KIT Kd
T3 construct: made in house; host or cells: T7 phage display or HEK-293 cells
T3 sequence (P10721 26-976): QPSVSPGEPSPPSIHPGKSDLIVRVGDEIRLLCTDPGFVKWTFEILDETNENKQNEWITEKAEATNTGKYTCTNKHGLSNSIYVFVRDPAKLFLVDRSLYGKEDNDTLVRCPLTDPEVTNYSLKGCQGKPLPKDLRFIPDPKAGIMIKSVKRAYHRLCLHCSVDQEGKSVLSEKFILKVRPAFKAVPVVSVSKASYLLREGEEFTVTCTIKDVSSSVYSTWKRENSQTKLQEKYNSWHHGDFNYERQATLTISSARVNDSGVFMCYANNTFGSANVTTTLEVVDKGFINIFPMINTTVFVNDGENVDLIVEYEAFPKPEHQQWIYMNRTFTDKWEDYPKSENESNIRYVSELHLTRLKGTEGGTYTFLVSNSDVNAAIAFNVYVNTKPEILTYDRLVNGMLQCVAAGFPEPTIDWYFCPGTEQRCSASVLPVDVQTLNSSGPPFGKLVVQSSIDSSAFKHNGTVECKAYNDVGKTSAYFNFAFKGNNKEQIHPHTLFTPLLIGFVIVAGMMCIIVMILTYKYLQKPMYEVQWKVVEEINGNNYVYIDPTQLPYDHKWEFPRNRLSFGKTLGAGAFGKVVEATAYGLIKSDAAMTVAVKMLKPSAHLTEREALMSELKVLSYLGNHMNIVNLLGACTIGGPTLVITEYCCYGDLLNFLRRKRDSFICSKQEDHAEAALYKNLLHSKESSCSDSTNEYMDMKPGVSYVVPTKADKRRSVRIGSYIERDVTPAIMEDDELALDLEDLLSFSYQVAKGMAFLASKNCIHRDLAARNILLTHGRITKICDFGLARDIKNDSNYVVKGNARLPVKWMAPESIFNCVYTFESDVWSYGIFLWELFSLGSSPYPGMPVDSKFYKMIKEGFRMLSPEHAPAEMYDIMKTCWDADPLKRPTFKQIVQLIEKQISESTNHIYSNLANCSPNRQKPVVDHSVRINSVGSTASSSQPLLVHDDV
Summary of the method: as §1

MV4-11 cells = experiment: MV4-11 cell proliferation assay (Alamar Blue); assay type: cell-based; details: Homo sapiens, MV4-11, 72 h, 3 days incubation
Summary of the method: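 Viability readout: Alamar Blue fluorescence, ex 560/em 590 nm, 3 h after reagent addition, after 3-day exposure of 64,000 MV4-11 cells per well to a 9-point half-log compound series in 0.5% FBS Iscove's. IC50 from duplicate averages, as 50% proliferation inhibition relative to negative control.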

[1] = molecular target: kinase panel containing either 359 or 386 distinct kinases; experiment: Selectivity score S10 from competition binding against a panel of kinases; details: compounds at 10 μM; panel of 386 distinct kinases
Summary of the method: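 Compounds were tested at 10 μM in competition binding against T7 phage-fused or HEK-293-expressed DNA-tagged kinases with immobilized affinity ligands, 1 h at room temperature. Bound kinase was quantified by qPCR as percent of DMSO control; S10 is the fraction of distinct kinases (mutants excluded) with POC below 10.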

| Compound | Kd (FLT3 kinase) | Kd (CSF-1R kinase) | Kd (KIT kinase) | IC50 (MV4-11 cells) | Kinase specificty: S(10)-386 panel [1] |
| --- | --- | --- | --- | --- | --- |
| CC(C)(C)c1cc(NC(=O)Nc2ccc(-c3ccc(NCCN4CCC(F)(F)CC4)nc3)cc2)no1.CS(=O)(=O)O [Example 107, 1-(2-((5-(4-(3-(5-(tert-butyl)isoxazol-3-yl)ureido)phenyl)pyridin-2-yl)amino)ethyl)-4,4-difluoropiperidin-1-ium methanesulfonate] | ≤ 1 nM | ≤ 10 nM | 1 to 10 nM | 1 to 10 nM | A (A≦0.1) |
| CC(C)(C)c1cc(NC(=O)Cc2ccc(-c3ccc(NCCN4CCC(F)(F)CC4)nc3)cc2)no1.CS(=O)(=O)O [Example 108, 1-(2-(5-(4-(2-(5-tert-butylisoxazol-3-ylamino)-2-oxoethyl)phenyl)pyridin-2-ylamino)ethyl)-4,4-difluoropiperidinium methanesulfonate] | ≤ 1 nM | ≤ 10 nM | 1 to 10 nM | 1 to 10 nM | A (A≦0.1) |
| CC(C)(c1cc(NC(=O)Cc2ccc(-c3ccc(NCCN4CCOCC4)nc3)cc2)no1)C(F)(F)F.CS(=O)(=O)O [Example 109, 4-(2-(5-(4-(2-oxo-2-(5-(1,1,1-trifluoro-2-methylpropan-2-yl)isoxazol-3-ylamino)ethyl)phenyl)pyridin-2-ylamino)ethyl)morpholin-4-ium methanesulfonate] | ≤ 1 nM | ≤ 10 nM | 1 to 10 nM | ≤ 1 nM | B (0.1<B≦0.2 nM) |
| CNc1ccc(-c2ccc(CC(=O)Nc3cc(C(C)(C)C)on3)cc2)cn1.CS(=O)(=O)O [Example 110, 5-(4-(2-(5-tert-butylisoxazol-3-ylamino)-2-oxoethyl)phenyl)-N-methylpyridin-2-aminium methanesulfonate] | ≤ 1 nM | ≤ 10 nM | 1 to 10 nM | ≤ 1 nM | B (0.1<B≦0.2 nM) |
| CCNc1ccc(-c2ccc(CC(=O)Nc3cc(C(C)(C)C)on3)cc2)cn1.CS(=O)(=O)O [Example 111, 5-(4-(2-(5-tert-butylisoxazol-3-ylamino)-2-oxoethyl)phenyl)-N-ethylpyridin-2-aminium methanesulfonate] | ≤ 1 nM | ≤ 10 nM | ≤ 1 nM | ≤ 1 nM | A (A≦0.1) |
| CC1(c2cc(NC(=O)Nc3ccc(-c4ccc(N)nc4)cc3)no2)CC1(F)F.CS(=O)(=O)O (stereo not shown) [Example 112, 5-(4-(3-(5-(2,2-difluoro-1-methylcyclopropyl)isoxazol-3-yl)ureido)phenyl)pyridin-2-aminium methanesulfonate] | ≤ 1 nM | ≤ 10 nM | 1 to 10 nM | 1 to 10 nM | A (A≦0.1) |
| CS(=O)(=O)O.Cc1nc(-c2ccc(CC(=O)Nc3cc(C(C)(C)C)on3)cc2)cnc1N [Example 113, 5-(4-(2-(5-tert-butylisoxazol-3-ylamino)-2-oxoethyl)phenyl)-3-methylpyrazin-2-aminium methanesulfonate] | ≤ 1 nM | ≤ 10 nM | 1 to 10 nM | ≤ 1 nM | B (0.1<B≦0.2 nM) |
| CC(C)(C)c1cc(NC(=O)Cc2ccc(-c3cnc(N)c(Cl)c3)cc2)no1.CS(=O)(=O)O [Example 115, 5-(4-(2-(5-tert-butylisoxazol-3-ylamino)-2-oxoethyl)phenyl)-3-chloropyridin-2-aminium methanesulfonate] | 1 to 10 nM | ≤ 10 nM | 1 to 10 nM | ≤ 1 nM | B (0.1<B≦0.2 nM) |
| CC(C)(C)c1cc(NC(=O)Cc2ccc(-c3cnc(N)c(C(F)(F)F)c3)cc2)no1.CS(=O)(=O)O [Example 116, 5-(4-(2-(5-tert-butylisoxazol-3-ylamino)-2-oxoethyl)phenyl)-3-(trifluoromethyl)pyridin-2-aminium methanesulfonate] | ≤ 1 nM | ≤ 10 nM | 1 to 10 nM | ≤ 1 nM | B (0.1<B≦0.2 nM) |
| CN1C(C)(C)CC(=CCNc2ccc(-c3ccc(CC(=O)Nc4cc(C(C)(C)C)on4)cc3)cn2)CC1(C)C [Example 117, N-(5-tert-butylisoxazol-3-yl)-2-(4-(6-(2-(1,2,2,6,6-pentamethylpiperidin-4-ylidene)ethylamino)pyridin-3-yl)phenyl)acetamide] | ≤ 1 nM | ≤ 10 nM | 1 to 10 nM | ≤ 1 nM | B (0.1<B≦0.2 nM) |
| CC(C)(F)c1cc(NC(=O)Cc2ccc(-c3ccc(NCCN4CCOCC4)nc3)cc2)on1 [Example 118, N-(3-(2-fluoropropan-2-yl)isoxazol-5-yl)-2-(4-(6-(2-morpholinoethylamino)pyridin-3-yl)phenyl)acetamide] | ≤ 1 nM | ≤ 10 nM | ≤ 1 nM | 10 to 100 nM | A (A≦0.1) |
| CC(C)(C)c1cc(NC(=O)Cc2ccc(-c3ccc(N)nc3F)cc2)on1.CS(=O)(=O)O [Example 119, 5-(4-(2-(3-tert-butylisoxazol-5-ylamino)-2-oxoethyl)phenyl)-6-fluoropyridin-2-aminium methanesulfonate] | ≤ 1 nM | ≤ 10 nM | 1 to 10 nM | ≤ 1 nM | A (A≦0.1) |
| CS(=O)(=O)O.Nc1ccc(-c2ccc(NC(=O)Nc3cc(C4(C(F)(F)F)CCC4)on3)cc2)cn1 [Example 121, 5-(4-(3-(5-(1-(trifluoromethyl)cyclobutyl)isoxazol-3-yl)ureido)phenyl)pyridin-2-aminium methanesulfonate] | 1 to 10 nM | 10 to 100 nM | 1 to 10 nM | ≤ 1 nM | A (A≦0.1) |
| CC1(CCNc2ccc(-c3ccc(CC(=O)Nc4cc(C(C)(C)C)on4)cc3)cn2)COC1 [Example 122, N-(5-tert-butylisoxazol-3-yl)-2-(4-(6-(2-(3-methyloxetan-3-yl)ethylamino)pyridin-3-yl)phenyl)acetamide] | 1 to 10 nM | 100 to 500 nM | 10 to 100 nM | 10 to 100 nM | A (A≦0.1) |
| CC(C)(C)c1cc(NC(=O)Cc2c(F)cc(-c3ccc(N)nc3)cc2F)no1.CS(=O)(=O)O [Example 123, 5-(4-(2-(5-tert-butylisoxazol-3-ylamino)-2-oxoethyl)-3,5-difluorophenyl)pyridin-2-aminium methanesulfonate] | ≤ 1 nM | ≤ 10 nM | 1 to 10 nM | ≤ 1 nM | B (0.1<B≦0.2 nM) |
| Nc1ccc(-c2ccc(CC(=O)Nc3cc(C4(C(F)(F)F)CCC4)on3)cc2)cn1 [Example 124, 2-(4-(6-aminopyridin-3-yl)phenyl)-N-(5-(1-(trifluoromethyl)cyclobutyl)isoxazol-3-yl)acetamide] | ≤ 1 nM | ≤ 10 nM | 1 to 10 nM | ≤ 1 nM | B (0.1<B≦0.2 nM) |
| CC(C)(C)c1cc(NC(=O)Cc2ccc(-c3ccc(N)nc3)c(F)c2)no1.CS(=O)(=O)O [Example 125, 5-(4-(2-(5-tert-butylisoxazol-3-ylamino)-2-oxoethyl)-2-fluorophenyl)pyridin-2-aminium methanesulfonate] | ≤ 1 nM | ≤ 10 nM | ≤ 1 nM | ≤ 1 nM | A (A≦0.1) |
